Test results taken from patent publication US4666916A, “Hexahydro-(1)-benzo-(pyrano and thiopyrano) (4,3-C)pyridines, useful as serotin-2 blocking agents” (Ciba-Geigy Corporation, priority 1985, dated 1987).

Tests used:
serotonin-2 receptor = molecular target: T1, serotonin-2 receptor (Rattus norvegicus, UniProt P14842); assay: head twitch test, inhibition of the head twitch induced by 5-hydroxytryptophane in the rat; format: in vivo, Male Wistar rats
T1 construct: Male Wistar rats (120-180 g) are fasted for 18 hr prior to testing; from tissue; host or cells: whole living animal (male Wistar rat), endogenous receptor of the central nervous system
T1 sequence (P14842 whole entry): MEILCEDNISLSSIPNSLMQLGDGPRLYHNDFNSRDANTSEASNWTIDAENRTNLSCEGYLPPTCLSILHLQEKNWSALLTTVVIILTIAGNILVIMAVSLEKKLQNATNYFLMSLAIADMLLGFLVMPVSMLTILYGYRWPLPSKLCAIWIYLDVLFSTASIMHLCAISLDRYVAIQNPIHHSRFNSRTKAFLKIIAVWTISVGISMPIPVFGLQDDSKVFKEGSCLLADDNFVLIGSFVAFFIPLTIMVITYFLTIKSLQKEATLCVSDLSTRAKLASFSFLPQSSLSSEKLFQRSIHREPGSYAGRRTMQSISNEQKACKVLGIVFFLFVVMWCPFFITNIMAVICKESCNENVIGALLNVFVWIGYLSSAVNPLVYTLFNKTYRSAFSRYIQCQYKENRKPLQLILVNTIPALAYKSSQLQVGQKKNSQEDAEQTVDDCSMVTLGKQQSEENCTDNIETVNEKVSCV
Protocol: The serotonin-2 antagonism or blockade is determined in vivo by measuring the inhibition of the head twitch induced by 5-hydroxytryptophane (the metabolic precursor of serotonin) in the rat. The head twitch test for assessing central nervous system serotonin-2 receptor antagonism in the rat is described in Neuropharmacology 16, 663 (1977) and in J. Pharmacol. Exp. Ther. 228, 133 (1984). The test is carried out as follows:
Male Wistar rats (120-180 g) are fasted for 18 hr prior to testing but allowed water ad libitum. All animals are pretreated with the peripheral decarboxylase inbihitor alpha-methyl-DOPA hydrazine (carbidopa 25 mg/kg i.p., 4.0 ml/kg) followed 30 min later by 5-hydroxytryptophan (5HTP 100 mg/kg s.c., 4.0 ml/kg). Ninety minutes after receiving 5HTP, the rats are placed individually in plexiglas observation cages and the frequency of head twitches for each animal is counted over a 10 min observation period. The test compound or vehicle is administered at either 0.5 hr at 1.0 ml/kg i.p. or at 1, 2 or 4 hr at 10 ml/kg p.o. prior to the observation period. ED50 values are determined by probit analysis.

[1] = molecular target: T2, serotonin-2 (HT-2) receptor (Rattus norvegicus, UniProt P14842); assay: serotonin-2 (HT-2) receptor binding, inhibition of specific binding of ^3 H-ketanserin in frontal/parietal cortex membranes; design: species or system male Sprague-Dawley rats; conditions: specific binding of ^3 H-ketanserin (0.4 nM)
T2 construct: membrane preparations of frontal/parietal cortex from male Sprague-Dawley rats; from tissue; host or cells: rat frontal/parietal cortex membranes (male Sprague-Dawley)
T2 sequence (P14842 whole entry): as above
Protocol: The serotonin-2 (HT-2) receptor binding properties, indicative of the serotonin-2 antagonist activity of the compounds of the invention, are determined in vitro by determining their ability to inhibit the specific binding of ^3 H-ketanserin, essentially as described by Battaglia et al in Life Sciences 33, 2011 (1983), in membrane preparations of frontal/parietal cortex from male Sprague-Dawley rats (200-225 g). IC50 values, representing the concentration of compound required to displace 50% of specific binding of 0.4 nM of ^3 H-ketanserin, are determined by log-logit analysis of the specific binding data. Selectivity for the HT-2 receptors can be determined by also measuring specific binding to serotonin-1 (HT-1) receptors, e.g. according to Middlemiss, D. N. and Fozard, J. R. in Eur. J. Pharmacol. 90, 151 (1980).

Compound CCSC[C@H]1CN(C)C[C@H]2c3cc(OC)cc(Br)c3OC[C@H]12 (relative stereo) [Example 4, (±)-[4R*,4aS*,10bR*]-7-Bromo-4-(ethylthiomethyl)-1,3,4,4a,5,10b-hexahydro-9-methoxy-2-methyl-2H-[1]benzopyrano[4,3-c]pyridine] has an ED50 (serotonin-2 receptor; 0.5 h, ip (at 30 minutes)) of 1.1 mg/kg, an ED50 (serotonin-2 receptor; po (at 1 hour)) of 0.71 mg/kg and an IC50 [1] of 0.022 µM.
